Laboratory results published in patent EP4624465A1, “COMPOUND SERVING AS DDR1 KINASE INHIBITOR, AND MEDICINE” (Nippon Shinyaku Co., Ltd., priority 2022, dated 2024).
pIC50: −log10 of the molar value. Where a name gives a salt, the structure may show the parent alone.

Tests used:
[1] = target: T1, DDR1 kinase (Homo sapiens, UniProt Q08345); assay: Evaluation of DDR1 kinase inhibition in DDR1-expressing U2OS cells (type I collagen stimulation, PathHunter detection); assay type: cell-based; design: host or cells: U2OS; details: type I collagen 50 µg/mL stimulation, duplicate, read-out: DDR-1 IC50
Method: The solution was further diluted in an E-MEM medium (Fujifilm Wako Pure Chemicals, 051-07615) containing 10% fetal bovine serum (FBS, Gibco, 10270106) to 60000, 6000, 600, 60, 6, and 0.6 nM to prepare test substance solutions. 2. […] On the following day, after the plate was left at room temperature for 1 hour, a detection solution was added to the wells at […] according to the handling instructions for the PathHunter® Detection Kit (DiscoverX, 93-0001), and then incubated at room temperature for 2 hours. After the incubation, a luminescence intensity was measured by Envision (Perkin-Elmer). Tests were performed in duplicate. 3.
Target sequence in this assay (Q08345 19-913): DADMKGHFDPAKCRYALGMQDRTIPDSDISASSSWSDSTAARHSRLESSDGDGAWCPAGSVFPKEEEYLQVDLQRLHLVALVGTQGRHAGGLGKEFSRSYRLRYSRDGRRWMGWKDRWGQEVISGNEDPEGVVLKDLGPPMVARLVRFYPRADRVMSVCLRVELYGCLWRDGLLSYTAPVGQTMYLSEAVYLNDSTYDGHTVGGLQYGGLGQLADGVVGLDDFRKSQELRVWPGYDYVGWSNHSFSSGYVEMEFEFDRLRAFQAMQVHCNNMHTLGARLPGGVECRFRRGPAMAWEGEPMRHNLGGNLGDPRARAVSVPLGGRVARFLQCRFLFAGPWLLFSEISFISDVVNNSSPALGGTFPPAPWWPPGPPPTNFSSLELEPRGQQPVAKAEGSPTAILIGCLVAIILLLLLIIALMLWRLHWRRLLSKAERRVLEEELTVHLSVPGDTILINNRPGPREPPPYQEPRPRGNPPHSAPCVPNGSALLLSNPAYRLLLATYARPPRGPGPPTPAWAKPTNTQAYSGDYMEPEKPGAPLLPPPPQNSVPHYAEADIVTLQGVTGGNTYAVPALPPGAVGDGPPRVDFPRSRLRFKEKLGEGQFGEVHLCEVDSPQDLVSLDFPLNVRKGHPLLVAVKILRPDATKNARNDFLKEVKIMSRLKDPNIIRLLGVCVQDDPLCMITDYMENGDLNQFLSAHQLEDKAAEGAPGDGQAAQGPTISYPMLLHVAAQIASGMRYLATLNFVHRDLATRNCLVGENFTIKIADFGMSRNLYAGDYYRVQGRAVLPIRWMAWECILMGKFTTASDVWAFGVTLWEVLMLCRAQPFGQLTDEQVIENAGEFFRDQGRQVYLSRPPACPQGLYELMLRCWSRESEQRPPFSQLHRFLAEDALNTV

[2] = target: T1, DDR1 kinase; assay: Evaluation of DDR1 kinase inhibition (LANCE Ultra TR-FRET kinase assay); assay type: biochemical; design: purchased Carna Biosciences 08-113; details: DDR1 protein 0.5 nM, LANCE Ultra ULight-poly GAT substrate, 2 hours at room temperature, duplicate; read-out: DDR-1 IC50
Target sequence in this assay (Q08345 19-876 isoform Q08345-2 limits assumed): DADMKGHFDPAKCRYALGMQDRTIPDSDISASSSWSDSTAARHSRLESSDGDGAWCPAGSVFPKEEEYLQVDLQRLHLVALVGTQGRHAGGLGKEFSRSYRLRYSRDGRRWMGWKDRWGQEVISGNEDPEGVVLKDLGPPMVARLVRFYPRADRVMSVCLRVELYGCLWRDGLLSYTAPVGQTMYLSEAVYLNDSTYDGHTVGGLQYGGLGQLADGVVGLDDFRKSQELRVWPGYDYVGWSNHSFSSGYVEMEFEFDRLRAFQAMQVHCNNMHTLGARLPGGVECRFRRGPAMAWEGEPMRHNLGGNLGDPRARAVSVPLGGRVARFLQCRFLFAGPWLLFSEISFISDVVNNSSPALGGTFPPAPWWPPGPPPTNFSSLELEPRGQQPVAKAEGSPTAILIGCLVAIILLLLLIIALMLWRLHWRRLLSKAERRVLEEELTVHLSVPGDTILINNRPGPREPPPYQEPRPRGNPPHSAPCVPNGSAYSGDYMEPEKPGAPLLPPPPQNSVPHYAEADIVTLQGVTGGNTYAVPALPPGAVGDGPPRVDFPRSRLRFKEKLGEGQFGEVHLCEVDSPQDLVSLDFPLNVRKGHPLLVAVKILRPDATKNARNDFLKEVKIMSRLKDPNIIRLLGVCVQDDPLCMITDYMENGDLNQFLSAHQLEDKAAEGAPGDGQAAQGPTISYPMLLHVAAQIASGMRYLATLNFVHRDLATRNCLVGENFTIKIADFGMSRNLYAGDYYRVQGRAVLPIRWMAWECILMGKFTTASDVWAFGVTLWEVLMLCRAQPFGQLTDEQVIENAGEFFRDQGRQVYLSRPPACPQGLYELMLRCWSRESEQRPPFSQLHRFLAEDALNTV

SMILES | pIC50 [1] | pIC50 [2]
Cc1ccc2c(n1)c(C1CN(C(=O)c3ccnc(N)c3)C1)nn2CC(=O)N1CCC[C@H]1C(F)(F)F [Compound E-12, 2-{3-[1-(2-aminopyridine-4-carbonyl)azetidin-3-yl]-5-methyl-1H-pyrazolo[4,3-b]pyridin-1-yl}-1-[(2S)-2-(trifluoromethyl)pyrrolidin-1-yl]ethan-1-one] | 6.48 | 8.12
CC(C)(C)NC(=O)Cn1nc(C2CN(C(=O)c3ccnc(N)c3)C2)c2c(F)cc(F)cc21 [Compound E-189, 2-(3-[1-(2-aminopyridine-4-carbonyl)azetidin-3-yl]-4,6-difluoro-1H-indazol-1-yl}-N-tert-butylacetamide] | 6.34 | 7.96
C[C@@H]1CN(C(=O)Cn2nc(C3CN(C(=O)c4ccnc(N)c4)C3)c3c(F)cc(F)cc32)C[C@H](C)O1 [Compound E-84, 2-{3-[1-(2-aminopyridine-4-carbonyl)azetidin-3-yl)-4,6-difluoro-1H-indazol-1-yl}-1-[(2R,68)-2,6-dimethylmorpholin-4-yl]ethan-1-one] | 5.64 | 9.52
CN(CC(F)(F)F)C(=O)Cn1nc(C2CN(C(=O)c3cc(N)ncc3F)C2)c2ccccc21 [Compound E-240, 2-{3-[1-(2-amino-5-fluoropyridine-4-carbonyl)azetidin-3-yl}-1H-indazol-1-yl}-N-methyl-N-(2,2,2-trifluoroethyl)acetamide] | 6.85 | 8.30
O=C(c1ccnc(NC2CCC(F)(F)CC2)c1)N1CC(c2nn(CC(=O)N3CCC[C@H]3C(F)(F)F)c3cc(F)cc(F)c23)C1 [Compound E-75, 2-[3-(1-{2-[(4,4-difluorocyclohexyl)aminolpyridine-4-carbonyl}azetidin-3-yl)-4,6-difluoro-1H-indazol-1-yl]-1-[(2S)-2-(trifluoromethyl)pyrrolidin-1-yl]ethan-1-one hydrochloride] | 7.48 | 7.82
Nc1cc(C(=O)N2CC(c3nn(CC(=O)N4CCO[C@@H](C(F)(F)F)C4)c4cncc(F)c34)C2)ccn1 [Compound E-100] | 6.96 | 7.47
CN(CC(F)(F)F)C(=O)Cn1nc(C2CN(C(=O)c3ccnc(N)c3)C2)c2c(F)cccc21 [Compound E-87, 2-{3-[1-(2-aminopyridine-4-carbonyl)azetidin-3-yl]-4-fluoro-1H-indazol-1-yl}-N-methyl-N-(2,2,2-trifluoroethyl)acetamide] | 7.03 | 7.66
Nc1cc(C(=O)N2CC(c3cn(CC(=O)N4CCC[C@H]4C(F)(F)F)c4ccccc34)C2)ccn1 [Compound E-11, 2-{3-[1-(2-aminopyridine-4-carbonyl)azetidin-3-yl]-1H-indol-1-yl}-1-[(2S)-2-(trifluoromethyl)pyrrolidin-1-yl]ethan-1-one] | 6.96 | 8.21
Nc1cc(C(=O)N2CC(c3nn(C(F)C(=O)N4CCC[C@H]4C(F)(F)F)c4cc(F)cc(F)c34)C2)ccn1 (stereo partly drawn) [Compound E-107, 2-{3-[1-(2-aminopyridine-4-carbonyl)azetidin-3-yl]-4,6-difluoro-1H-indazol-1-yl}-2-fluoro-1-[(2S)-2-(trifluoromethyl)pyrrolidin-1-yl]ethan-1-one] | 6.17 | 7.04
Nc1cc(C(=O)N2CC(c3nn(CC(=O)N4CCC[C@H]4C(F)(F)F)c4cc(F)cc(F)c34)C2)cnn1 [Compound E-16, 2-{3-[1-(6-aminopyridazine-4-carbonyl)azetidin-3-yl]-4,6-difluoro-1H-indazol-1-yl)-1-[(2S)-2-(trifluoromethyl)pyrrolidin-1-yl]ethan-1-one] | 6.14 | 7.82
Nc1cc(C(=O)N2CC(c3nn(CC(=O)N4CC(F)(F)C[C@H]4CF)c4ccccc34)C2)c(F)cn1 [Compound E-237, 2-{3-[1-(2-amino-5-fluoropyridine-4-carbonyl)azetidin-3-yl]-1H-indazol-1-yl]-1-[(2S)-4,4-difluoro-2-(fluoromethyl)pyrrolidin-1-yl]ethan-1-one] | 7.47 | 8.42
Cc1nc(NC2CC2)sc1C(=O)N1CC(c2nn(CC(=O)N3CCC[C@H]3C(F)(F)F)c3cc(F)cc(F)c23)C1 [Compound E-99, 2-(3-{1-[2-(cyclopropylamino)-4-methyl-1,3-thiazole-5-carbonyl]azetidin-3-yl}-4,6-difluoro-1H-indazol-1-y1)-1-[(2S)-2-(trifluoromethyl)pyrrolidin-1-yl]ethan-1-one] | 6.82 | 7.40
Nc1nc(C(F)(F)F)c(C(=O)N2CC(c3nn(CC(=O)N4CCC[C@H]4C(F)(F)F)c4cc(F)cc(F)c34)C2)s1 [Compound E-139, 2-(3-{1-[2-amino-4-(trifluoromethyl)-1,3-thiazole-5-carbonyl]azetidin-3-yl}-4,6-difluoro-1H-indazol-1-yl)-1-[(2S)-2-(trifluoromethyl)pyrrolidin-1-yl]ethan-1-one] | 6.07 | 7.74
Cc1ccc2c(n1)c(C1CN(C(=O)c3cc(N)ncc3F)C1)nn2CC(=O)N1CCOCC1(C)C [Compound E-186, 2-{3-[1-(2-amino-5-fluoropyridine-4-carbonyl)azetidin-3-yl]-5-methyl-1H-pyrazolo[4,3-b]pyridin-1-yl}-1-(3,3-dimethylmorpholin-4-yl)ethan-1-one p-toluenesulfonate] | 6.16 | 7.64
O=C(c1ccc2[nH]nnc2c1)N1CC(c2nn(CC(=O)N3CCC[C@H]3C(F)(F)F)c3cc(F)cc(F)c23)C1 [Compound E-169, 2-{3-[1-(1H-1,2,3-benztriazole-5-carbonyl)azetidin-3-yl]-4,6-difluoro-1H-indazol-1-yl}-1-[(2S)-2-(trifluoromethyl)pyrrolidin-1-yl]ethan-1-one] | 5.96 | 8.01
Nc1cc(C(=O)N2CC(c3nn(CC(=O)NCC(F)F)c4cccc(F)c34)C2)ccn1 [Compound E-242, 2-{3-[1-(2-aminopyridine-4-carbonyl)azetidin-3-yl]-4-fluoro-1H-indazol-1-yl}-N-(2,2-difluoroethyl)acetamide] | 6.13 | 7.52
Cc1nc(N)oc1C(=O)N1CC(c2nn(CC(=O)N3CCC[C@H]3C(F)(F)F)c3cc(F)cc(F)c23)C1 [Compound E-110, 2-{3-{1-(2-amino-4-methyl-1,3-oxazole-5-carbonyl)azetidin-3-yl}-4,6-difluoro-1H-indazol-1-yl}-1-[(2S)-2-(trifluoromethyl)pyrrolidin-1-yl]ethan-1-one] | 6.96 | 7.35
Nc1cc(C(=O)N2CC(c3nn(CC(=O)N4CCO[C@@H](C(F)(F)F)C4)c4cccc(F)c34)C2)ccn1 [Compound E-95, 2-{3-[1-(2-aminopyridine-4-carbonyl)azetidin-3-yl]-4-fluoro-1H-indazol-1-yl}-1-[(2R)-2-(trifluoromethyl)morpholin-4-yl]ethan-1-one hydrochloride] | 6.32 | 8.11
Cc1nc(N)sc1C(=O)N1CC(c2nn(CC(=O)N3CCC[C@H]3C(F)(F)F)c3ccccc23)C1 [Compound E-197, 2-(3-[1-(2-amino-4-methyl-1,3-thiazole-5-carbonyl)azetidin-3-yl]-1H-indazol-1-yl}-1-[(2S)-2-(trifluoromethyl)pyrrolidin-1-yl]ethan-1-one] | 6.82 | 8.64
